By IC50 is commonly meant the midpoint of a concentration-inhibition curve. In general, inhibition refers to the relative decrease from the control value, in per cent. The low end stands for a weak effect, the high end for a strong effect.

One series concerns MRP4. Details: method as in earlier work. The settings on record: vesicular transport assay; ref 14 (Mutsaers et al.); cited from earlier work.
Series [1] deals with parent ciPTEC models lacking OAT1. Description: MTT cell viability assay in parent ciPTEC lacking OAT1. Type of series: cell-based, human. The settings on record: parent ciPTEC lacking OAT1, in presence of efflux pump inhibitors. As for the experimental part:
After 4 hours of incubation, the intracellular
Monolayer polarization and transepithelial barrier function
Next, cells were incubated with
The mR NA expression level s of
PCR Master Mix (Applied Biosystems, Branchburg, NJ).
On the technique in general: Tetrazolium dyes change colour on reduction, which living cells bring about.

Another series deals with BCRP. More on the design: method as in earlier work. The note with it: vesicular transport assay; ref 14 (Mutsaers et al.); cited from earlier work.
Details of series [2]: method as in Duranton et al.[6]. The note with it: mean plasma levels in ESRD patients; ref Duranton et al.[6]; cited from earlier work.
Series [3] addresses T1, OAT1 (Homo sapiens, UniProt Q4U2R8).
T1 sequence (Q4U2R8 1-563): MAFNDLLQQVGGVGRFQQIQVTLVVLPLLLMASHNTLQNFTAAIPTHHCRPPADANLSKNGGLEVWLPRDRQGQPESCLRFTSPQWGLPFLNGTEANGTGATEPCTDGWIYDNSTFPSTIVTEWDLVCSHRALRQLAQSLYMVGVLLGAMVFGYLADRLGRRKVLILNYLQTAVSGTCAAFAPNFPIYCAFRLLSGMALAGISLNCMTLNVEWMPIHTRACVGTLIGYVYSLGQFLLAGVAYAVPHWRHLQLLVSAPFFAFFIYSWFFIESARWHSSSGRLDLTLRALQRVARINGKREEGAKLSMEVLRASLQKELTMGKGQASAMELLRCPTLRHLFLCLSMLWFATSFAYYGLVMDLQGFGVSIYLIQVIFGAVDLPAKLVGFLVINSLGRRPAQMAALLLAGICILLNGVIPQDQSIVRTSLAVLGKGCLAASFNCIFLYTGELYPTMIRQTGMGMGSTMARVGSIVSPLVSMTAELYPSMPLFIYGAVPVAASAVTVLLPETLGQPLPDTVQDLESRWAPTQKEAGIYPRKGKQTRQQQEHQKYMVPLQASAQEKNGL
Description: Fluorescein inhibition assay in ciPTEC-OAT1 flat monolayers.

In the next series the target is T2, OAT3 (Homo sapiens, UniProt Q8TCC7).
T2 sequence (Q8TCC7 1-542): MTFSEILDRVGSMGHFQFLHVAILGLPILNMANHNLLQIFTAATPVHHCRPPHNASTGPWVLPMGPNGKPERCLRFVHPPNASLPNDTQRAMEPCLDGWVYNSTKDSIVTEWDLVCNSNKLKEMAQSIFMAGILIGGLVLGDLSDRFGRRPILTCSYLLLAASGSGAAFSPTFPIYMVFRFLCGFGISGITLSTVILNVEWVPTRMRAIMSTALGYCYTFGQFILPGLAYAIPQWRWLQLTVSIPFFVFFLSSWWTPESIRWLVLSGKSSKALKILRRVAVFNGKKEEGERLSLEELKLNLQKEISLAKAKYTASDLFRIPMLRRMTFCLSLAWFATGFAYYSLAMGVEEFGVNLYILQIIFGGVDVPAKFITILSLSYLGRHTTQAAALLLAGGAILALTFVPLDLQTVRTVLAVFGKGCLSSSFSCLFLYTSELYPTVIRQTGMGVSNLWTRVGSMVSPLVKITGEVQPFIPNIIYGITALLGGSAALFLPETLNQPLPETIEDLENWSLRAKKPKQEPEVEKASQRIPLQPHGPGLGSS
Description: Fluorescein inhibition assay in ciPTEC-OAT3 flat monolayers.

The target of series [4] is T1, OAT1. Description: Uptake of indoxyl sulfate and kynurenic acid by ciPTEC-OAT1 (LC-MS/MS). The settings on record: 10 min, 37°C.
The subject of series [5] is bioengineered renal tubules (ciPTEC-OAT1 on HFM). Nature of the series: Transepithelial transport (clearance) of indoxyl sulfate and kynurenic acid in bioengineered renal tubules. It is filed as cell-based. The note with it: absence of human serum albumin; perfusion 10 min, 100 μM toxin.
The target in series [6] is T1, OAT1. Nature of the series: in vitro. The settings on record: pH 7.4, inhibition of indoxyl sulfate uptake.
[7] abbreviates: read-out: ciPTEC-OAT1 IC50 (inhibition of fluorescein uptake), 1 μM fluorescein, 10 min, 37°C, flat monolayers, mean ± S.E.M.
The mark [8] stands for this setting: read-out: ciPTEC-OAT3 IC50 (inhibition of fluorescein uptake), 1 μM fluorescein, 10 min, 37°C, flat monolayers, mean ± S.E.M.

Counter-ions that a name gives are not always drawn. Like-named read-outs stand apart in the source and are kept apart here.

In the case of `O=S(=O)(O)Oc1c[nH]c2ccccc12` [Indoxyl sulfate], the “inhibition of MRP4 (in words)” value with MRP4 is recorded as “potent inhibitors”. Moreover, the “TC50 (cell viability, MTT)” value in [1] turned out to be 3000 ± 500 µM. The “inhibition of BCRP (in words)” value in the series with BCRP is recorded as “potent inhibitors”. Also, the “Cm in ESRD patients” value in series [2] was 110 µM.
On to `O=C(O)[C@H]1O[C@@H](Oc2c[nH]c3ccccc23)[C@H](O)[C@@H](O)[C@@H]1O` [Indoxyl-β-glucuronide], for which the half-inhibitory concentration (IC50) was 492 ± 68 µM on OAT1 [3] and 527 ± 218 µM against OAT3. In addition, the “Cm in ESRD patients” value in series [2] was 9 µM.
As for `O=C(O)c1cc(=O)c2ccccc2[nH]1` [Kynurenic acid], the figures for the “uptake by ciPTEC-OAT1 monolayers” value at OAT1 [4] (toxin 3 μM) and on OAT1 [4] (toxin 30 μM) were 2.7 ± 0.3 pmol.min^−1.cm^−2 and 5.9 ± 0.5 pmol.min^−1.cm^−2, respectively. Moreover, the transepithelial clearance in series [5] is listed as 72 ± 20 μl.min^−1.cm^−2. For the same compound, the IC50 at OAT1 [3] and on OAT3 was 6 ± 1 µM in each case. On OAT1 [6], this compound had an inhibition at 10 min, 100 μM of 64 ± 13%.
As for `Cc1ccc(O[C@@H]2O[C@H](C(=O)O)[C@@H](O)[C@H](O)[C@H]2O)cc1` [p-Cresylglucuronide], the IC50 on OAT1 [3] (setting [7]) is 2650 ± 922 µM; on OAT3 (setting [8]), 588 ± 81 µM. Besides, the “Cm in ESRD patients” value in series [2] is 44 µM.
As to `O=C(O)Cc1c[nH]c2ccccc12` [Indole-3-acetic acid], the IC50 against OAT1 [3] was 19 ± 2 µM; against OAT3, 148 ± 60 µM.
Regarding `Cc1ccc(OS(=O)(=O)O)cc1` [p-Cresylsulfate], the half-maximal inhibitory concentration (IC50) was found to be 79 ± 14 µM at OAT1 [3] (setting [7]) and 112 ± 19 µM at OAT3 (setting [8]). For the same compound, the “Cm in ESRD patients” value in [2] was 675 µM.
The compound `O=C(O)CNC(=O)c1ccccc1` [Hippuric acid] came in with an IC50 against OAT3 of 22 ± 9 µM. Further, in [2], the “Cm in ESRD patients” value was 398 µM.
On to `Nc1ccccc1C(=O)C[C@H](N)C(=O)O` [L-Kynurenine], for which the IC50 on OAT1 [3] was determined as 65 ± 8 µM; against OAT3, 219 ± 66 µM. Further, the “Cm in ESRD patients” value in series [2] was 6 µM.

The record behind these values is PMC4886219, “Bioengineered kidney tubules efficiently excrete uremic toxins” (Scientific Reports, 2016).
